We go through four compounds from publication PMC9165844 (PLoS ONE, 2022).

By Ki is commonly meant a measure of affinity in units of concentration, obtained from inhibition or displacement. In general, IC50 refers to the point on the concentration scale where inhibition reaches its midpoint. A higher IC50 goes with a need for much substance. In general, inhibition refers to how much of the control response was suppressed.

The nature of data set [1]: Solubility in solvents noted for the synthesized compounds. The note with it: qualitative. The class given is physicochemical.
The subject of a further data set is PC12. The data set can be described thus: Cytotoxic effect by MTT assay on PC12 cells. As to conditions: 12.5-200 μM. In general terms: Formazan colour is commonly taken as a measure of viable cells.
The subject of the next data set is NIH3T3 fibroblasts. Description: Cytotoxic effect by MTT assay on NIH3T3 fibroblasts. The note with it: 12.5-200 μM.
In a further data set the target is AChE (Electrophorus electricus, UniProt O42275). Description: biochemical. The note with it: for Ki: read-out: AChE inhibition constant (Ki).
Chain of AChE (O42275 24-633 limits assumed): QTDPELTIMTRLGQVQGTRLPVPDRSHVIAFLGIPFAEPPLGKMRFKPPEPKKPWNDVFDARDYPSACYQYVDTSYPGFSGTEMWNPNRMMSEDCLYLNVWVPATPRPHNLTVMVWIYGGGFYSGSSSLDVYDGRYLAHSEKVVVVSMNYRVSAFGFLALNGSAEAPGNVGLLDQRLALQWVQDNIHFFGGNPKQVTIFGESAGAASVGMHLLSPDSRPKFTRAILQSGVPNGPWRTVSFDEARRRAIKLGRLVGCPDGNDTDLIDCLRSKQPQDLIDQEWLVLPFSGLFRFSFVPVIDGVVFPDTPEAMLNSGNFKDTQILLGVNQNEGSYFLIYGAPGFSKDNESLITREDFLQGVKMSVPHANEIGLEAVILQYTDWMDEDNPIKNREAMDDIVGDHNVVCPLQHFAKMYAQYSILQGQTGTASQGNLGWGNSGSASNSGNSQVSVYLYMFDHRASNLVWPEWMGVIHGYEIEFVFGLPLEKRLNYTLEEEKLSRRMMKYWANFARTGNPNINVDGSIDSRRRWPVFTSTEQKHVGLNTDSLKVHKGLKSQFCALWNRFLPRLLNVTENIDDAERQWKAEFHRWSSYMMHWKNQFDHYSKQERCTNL
A further data set relates to astrocytes. The data set can be described thus: Cytotoxic effect by MTT assay on astrocytes. As to conditions: for Cytotoxicity in astrocyte cultures: MTT, 12.5-200 μM; for Astrocytes viability: control for cytotoxicity effect.
A further data set deals with BACE 1 (Homo sapiens, UniProt P56817). Description: Inhibition of BACE 1 activity (FRET kit). As to conditions: for BACE1 inhibitory activity (in words): FRET.
Chain of BACE 1 (P56817 46-501): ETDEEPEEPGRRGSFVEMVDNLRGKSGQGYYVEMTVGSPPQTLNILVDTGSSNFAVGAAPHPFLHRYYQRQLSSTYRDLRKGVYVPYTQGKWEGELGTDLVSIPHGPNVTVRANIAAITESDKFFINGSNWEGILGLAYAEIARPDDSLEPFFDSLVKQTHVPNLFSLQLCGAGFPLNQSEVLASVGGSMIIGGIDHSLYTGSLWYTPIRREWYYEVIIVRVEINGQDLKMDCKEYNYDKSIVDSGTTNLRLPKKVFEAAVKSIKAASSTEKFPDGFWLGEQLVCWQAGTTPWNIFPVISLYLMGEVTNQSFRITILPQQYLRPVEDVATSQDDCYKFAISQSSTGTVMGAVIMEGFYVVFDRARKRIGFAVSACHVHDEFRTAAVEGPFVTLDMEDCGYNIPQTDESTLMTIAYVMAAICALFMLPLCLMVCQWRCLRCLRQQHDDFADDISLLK
The target in another data set is T1, Aβ1–42 (Homo sapiens, UniProt P05067).
T1 construct: Aβ of 42 aa residues (Aβ1–42) represents the most amyloidogenic and toxic form; purchased Calbiochem PP69
T1 sequence (P05067 672-713): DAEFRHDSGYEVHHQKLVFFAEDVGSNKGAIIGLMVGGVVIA
The data set can be described thus: Inhibition of Aβ1–42 aggregation by Thioflavin T (ThT) assay. The class given is biochemical. The note with it: compound at 100 μM, 48 h, 37°C, ThT fluorescence; read-out: Percentage of inhibition of Aβ1–42 fibrillation.

Entries after “also recorded” stand apart in the source; their conditions may differ.

For the compound `COc1ccc(CN)cc1OCCN1CCCC1` [Compound F3S4-m, (4-methoxy-3-(2-(pyrrolidin-1-yl)ethoxy)phenyl) methanamine], in data set [1], the “Solubility (solvents)” value is “MetOH, EtOH, Acetone”. Also, in the data set with PC12, the “Cytotoxicity in PC12 cell cultures” value is recorded as “not cytotoxic”. Further, the “Cytotoxicity in fibroblast cultures” value in the data set with NIH3T3 fibroblasts is “not cytotoxic”. For the same compound, on AChE, the “AChE inhibitory activity (in words)” value is recorded as “showed inhibitory activity” and the Ki was determined as 0.19 µM. In addition, in the data set with astrocytes, the “Cytotoxicity in astrocyte cultures” value is “not cytotoxic”. In addition, at BACE 1, it took 8.38 µM to reach half-maximal inhibition (IC50) and the “BACE1 inhibitory activity (in words)” value is reported as “showed inhibitory activity”. Also, at Aβ1–42, the inhibition at 100 µM was 30.5%.
For `COc1cc(CN)ccc1OCCN1CCCCC1` [Compound F2S4-p, (3-methoxy-4-(2-(piperidin-1-yl)ethoxy)phenyl) methanamine], the “Solubility (solvents)” value in data set [1] is given as “MetOH, EtOH, water”. Also, in the data set with NIH3T3 fibroblasts, the “Cytotoxicity in fibroblast cultures” value is on record as “showed cytotoxic”. At AChE, the “AChE inhibitory activity (in words)” value was “no significant effect; also recorded: did not show inhibitory activity; also recorded: did not show inhibition” and the Ki was more than 100 µM. Also, at BACE 1, the “BACE1 inhibitory activity (in words)” value was “not possible to determine its IC50 value; also recorded: did not show inhibitory activity; also recorded: did not show inhibition”. On Aβ1–42, the inhibition at 100 µM was 42.1%.
Turning to `COc1ccc(CN)cc1OCCN1CCCCC1` [Compound F2S4-m, (4-methoxy-3-(2-(piperidin-1-yl)ethoxy)phenyl) methanamine], the “Solubility (solvents)” value in data set [1] is recorded as “MetOH, EtOH, Acetone, CHCl3, EtOAc, H2O”. Besides, in the data set on PC12, the “Cytotoxicity in PC12 cell cultures” value is on record as “not cytotoxic”. The “Cytotoxicity in fibroblast cultures” value with NIH3T3 fibroblasts is on record as “not cytotoxic”. At AChE, the “AChE inhibitory activity (in words)” value is reported as “showed inhibitory activity” and the Ki was found to be 0.4 µM. Besides, in the data set with astrocytes, the “Cytotoxicity in astrocyte cultures” value is “not cytotoxic”. Besides, on BACE 1, the midpoint of inhibition, the IC50, lay at 16 µM and the “BACE1 inhibitory activity (in words)” value was “showed inhibitory activity”. The inhibition at 100 µM on Aβ1–42 came to 60.9%.
For `[Cl][Cd][Cl]` [Cadmium chloride, reference compound], the Astrocytes viability is 25% in the data set with astrocytes (at 100 μM) and “above 80%” with astrocytes (at concentrations 1 μM ≤).
